The values that follow come from patent US8889919B2, “Cyclic compound, process for production of the cyclic compound, radiation-sensitive composition, and method for formation of resist pattern” (Mitsubishi Gas Chemical Company, Inc., priority 2009, dated 2014).

Structures are written as SMILES.

The nature of this data set: Solubility of compound in safety solvent. The class given is physicochemical. As to conditions: for Solubility in CHN: solvent cyclohexanone (CHN); for Solubility in PGME: solvent propylene glycol monomethyl ether (PGME). The procedure:
(1) Solubility of Compound in Safety Solvent
The compounds obtained in Synthesis Examples 1 to 6 and Synthesis 1 to 4 were evaluated for the solubility in propylene glycol monomethyl ether (PGME) and cyclohexanone (CHN).
B: 1.0 wt %≦dissolved amount<4.0 wt %
C: dissolved amount<1.0 wt %

Turning to `CC(C)c1ccc(C2c3cc(c(O)cc3O)C(c3ccc(C(C)C)cc3)c3cc(c(O)cc3O)C(c3ccc(C(C)C)cc3)c3cc(c(O)cc3O)C(c3ccc(C(C)C)cc3)c3cc2c(O)cc3O)cc1` (centres unmarked) [CR-1A], the “Solubility in CHN” value was “A (4.0 wt %≦amount)” and the “Solubility in PGME” value is recorded as “B (1.0 wt %≦dissolved amount<4.0 wt %)”.

Turning to `CC(C)Cc1ccc(C2c3cc(c(O)cc3O)C(c3ccc(CC(C)C)cc3)c3cc(c(O)cc3O)C(c3ccc(CC(C)C)cc3)c3cc(c(O)cc3O)C(c3ccc(CC(C)C)cc3)c3cc2c(O)cc3O)cc1` (centres unmarked) [CR-2A], the “Solubility in CHN” value is recorded as “B (1.0 wt %≦dissolved amount<4.0 wt %)” and the “Solubility in PGME” value is reported as “C (dissolved amount<1.0 wt %)”.

Turning to `Oc1cc(O)c2cc1C(c1ccc(-c3ccccc3)cc1)c1cc(c(O)cc1O)C(c1ccc(-c3ccccc3)cc1)c1cc(c(O)cc1O)C(c1ccc(-c3ccccc3)cc1)c1cc(c(O)cc1O)C2c1ccc(-c2ccccc2)cc1` (centres unmarked) [CR-3A], the “Solubility in CHN” value was “A (4.0 wt %≦amount)” and the “Solubility in PGME” value is reported as “C (dissolved amount<1.0 wt %)”.

Turning to `Oc1cc(O)c2cc1C(c1ccc(C3CCCCC3)cc1)c1cc(c(O)cc1O)C(c1ccc(C3CCCCC3)cc1)c1cc(c(O)cc1O)C(c1ccc(C3CCCCC3)cc1)c1cc(c(O)cc1O)C2c1ccc(C2CCCCC2)cc1` (centres unmarked) [CR-4A], the “Solubility in CHN” value is reported as “A (4.0 wt %≦amount)” and the “Solubility in PGME” value is “B (1.0 wt %≦dissolved amount<4.0 wt %)”.
